Where two headings read alike, the source gives them in different places.
Target: T1, E. coli DdlB enzyme (D-alanine:D-alanine ligase) (Escherichia coli, UniProt P07862)
T1 construct: made in house; host or cells: E. coli
Experiment: biochemical
Settings: for remaining activity at 2100 µM: tested concentration 2.1 mM; for remaining activity at 2300 µM: tested concentration 2.3 mM; for remaining activity at 1900 µM: tested concentration 1.9 mM; for remaining activity at 2200 µM: tested concentration 2.2 mM; for remaining activity at 2400 µM: tested concentration 2.4 mM; for remaining activity at 2000 µM: tested concentration 2.0 mM; for remaining activity at 2600 µM: tested concentration 2.6 mM; for remaining activity at 1800 µM: tested concentration 1.8 mM; for remaining activity at 1700 µM: tested concentration 1.7 mM
Protocol: The fragment library was assayed in a DdlB inhibition assay, where fragments were tested for their ability to inhibit the D-Ala-adding activity of DdlB ligase. The orthophosphate formed during the enzymatic reaction was measured spectrophotometrically using malachite green reagent.
A recombinant E. coli DdlB enzyme (D-alanine:D-alanine ligase) was expressed in E. coli[11]. […] The final DMSO concentration was 5%. […] All experiments were performed in duplicates. […] IC50 values were determined by measuring the residual activities in quadruplicate at seven different compound concentrations and calculated using in GraphPad Prism (GraphPad Software, San Diego, CA, USA).

[1] = residual activity, read-out: DdlB RA
[2] = fragment library screening, read-out: DdlB RA
[3] = residual activity of DdlB, fragment library screening, tested concentration 2.5 mM, read-out: DdlB RA

## CC#CC(=O)NCc1cc(F)ccc1F [Compound T001-0919]
Tested concentration 2.9 mM, read-out: DdlB RA
  remaining activity at 2900 µM: 89%

## O=S(=O)(Cc1ccccc1F)N1CCOCC1 [Compound Y300-2685]
read-out: DdlB RA
  remaining activity at 2100 µM: 95%

## CC(c1c[nH]c2ccccc12)C(O)C(=O)O (stereo not drawn) [Compound 8019-4518]
[1]
  remaining activity at 2300 µM: 100%

## O=C(O)CCC(=O)N1CCO[C@H](c2ccccc2)C1 [Compound Y044-6579]
[2]
  remaining activity at 1900 µM: 93%

## OCCc1ccc(Cl)cc1 [FLD160]
[3]
  remaining activity at 2500 µM: 92%

## Cn1c(C(=O)O)cc2ccccc21 [FLD198]
[3]
  remaining activity at 2500 µM: 79%

## Nc1cccc(C(F)(F)F)n1 [FLD091]
read-out: DdlB RA
  remaining activity at 2500 µM: 100%

## Nc1ccc(Br)cc1N [FLD118]
[3]
  remaining activity at 2500 µM: 90%

## O=c1[nH]c2ncc(Br)cc2o1 [Compound Y042-2897]
read-out: DdlB RA
  remaining activity at 2300 µM: 92%

## COc1cc(C(=O)NO)cc(OC)c1OC [Compound 8017-0604]
[1]
  remaining activity at 2200 µM: 96%

## CN(C)S(=O)(=O)Cc1ccccc1F [Compound Y300-2671]
Tested concentration 2.5 mM, read-out: DdlB RA
  remaining activity at 2500 µM: 95%

## COc1ccc2[nH]c(S(=O)(=O)O)nc2c1 [Compound 3260-0314]
read-out: DdlB RA
  remaining activity at 2200 µM: 91%

## Cc1cc(C)n(CCO)c(=O)n1 [Compound 8012-5852]
Residual activity of DdlB, fragment library screening, read-out: DdlB RA
  remaining activity at 2400 µM: 94%

## Cc1ccc(N)c(N)c1 [FLD075]
[3]
  remaining activity at 2500 µM: 90%

## Nc1ccc(Cl)nn1 [FLD052]
[3]
  remaining activity at 2500 µM: 96%

## Cc1cc(N)ccn1 [FLD090]
[3]
  remaining activity at 2500 µM: 100%

## O=C1Cc2cc([N+](=O)[O-])ccc2N1 [FLD155]
[3]
  remaining activity at 2500 µM: 99%

## O=C(O)CC1(CC(=O)Nc2cccnc2)CCCC1 [Compound 8016-0695]
[2]
  remaining activity at 1900 µM: 93%

## O=C(O)c1cccc(Cl)c1 [FLD071]
[3]
  remaining activity at 2500 µM: 100%

## Cc1cc(C)n(C(=O)C2CC=CCC2C(=O)O)n1 (stereo not drawn) [Compound Y203-9842]
read-out: DdlB RA
  remaining activity at 2000 µM: 90%

## CNc1nnc(C(F)(F)F)s1 [FLD140]
[3]
  remaining activity at 2500 µM: 94%

## O=c1c(O)c(N2CCCCCC2)c1=O [Compound G317-0465]
read-out: DdlB RA
  remaining activity at 2600 µM: 92%

## NC(=O)c1cnccn1 [FLD007]
[3]
  remaining activity at 2500 µM: 100%

## CC(C(=O)NCc1cc(F)cc(F)c1)C1CCOCC1 (stereo not drawn) [Compound S424-0231]
[1]
  remaining activity at 2100 µM: 92%

## C/C=C/c1ccc(OC)cc1 [FLD073]
[3]
  remaining activity at 2500 µM: 100%

## N#CCS(=O)(=O)C1CCCCC1 [FF20-0194]
Residual activity of DdlB, fragment library screening, tested concentration 3.2 mM, read-out: DdlB RA
  remaining activity at 3200 µM: 101%

## Cc1nn(C)cc1-c1ccnc2c(C(=O)O)cnn12 [Compound 17, 7–(1,3-Dimethyl-1H-pyrazol-4-yl)pyrazolo[1,5-a]pyrimidine-3-carboxylic acid]
  DdlB dose-response curve shape: Nonsigmoidal curve
At 5 mM, read-out: DdlB inhibition, RA (Residual Activity)
  remaining activity at 5000 µM: 26%

## COc1c(C)[nH]ccc1=O [FLD135]
[3]
  remaining activity at 2500 µM: 96%

## N#Cc1cccc2[nH]ccc12 [Compound 8019-9980]
read-out: DdlB RA
  remaining activity at 4200 µM: 101%

## O=C(Nc1ccccc1C(=O)O)c1ccccc1Cl [Compound 0342-0148]
[1]
  remaining activity at 1800 µM: 111%

## CCC(CC)C(=O)Nc1ccc(S(N)(=O)=O)cc1 [Compound Y203-8619]
read-out: DdlB RA
  remaining activity at 1800 µM: 81%

## NC1=NC(=O)CO1 [Compound 1318-0067]
Residual activity of DdlB, fragment library screening, tested concentration 5.0 mM, read-out: DdlB RA
  remaining activity at 5000 µM: 102%

## Nc1ccc(Br)cn1 [FLD145]
[3]
  remaining activity at 2500 µM: 92%

## CC(C)(C)OC(=O)n1c(B(O)O)cc2ccccc21 [Compound 8018-6383]
read-out: DdlB RA
  remaining activity at 1900 µM: 75%

## COc1ccc(CNc2ccccc2C(=O)O)cc1 [Compound K783-0843]
[1]
  remaining activity at 1900 µM: 101%

## CCc1nc(NCc2ccncc2)ncc1C(=O)O [Compound S272-1779]
[2]
  remaining activity at 1900 µM: 93%

## Cc1nn(Cc2c(C(=O)O)noc2C)c(C)c1C [FF01-5078]
read-out: DdlB RA
  remaining activity at 2000 µM: 81%

## O=C(C1CCCN(C(=O)C2CCC2)C1)N1CCOCC1 (stereo not drawn) [Compound P773-6398]
[1]
  remaining activity at 2000 µM: 98%

## O=C(O)c1cc(O)no1 [Compound 8020-2787]
Tested concentration 3.9 mM, read-out: DdlB RA
  remaining activity at 3900 µM: 92%

## Cc1ccccc1CS(=O)(=O)N(C)C [Compound Y300-2769]
Tested concentration 2.8 mM, read-out: DdlB RA
  remaining activity at 2800 µM: 87%

## O=c1c(NCc2ccccn2)c(-c2ccccc2)c1=O [Compound E470-0290]
read-out: DdlB RA
  remaining activity at 1900 µM: 96%

## Nc1cccc2ncccc12 [FLD054]
[3]
  remaining activity at 2500 µM: 94%

## Clc1cc(Cl)ncn1 [FLD117]
[3]
  remaining activity at 2500 µM: 97%

## CCOC(=O)N1CCC(N)CC1 [FLD189]
[3]
  remaining activity at 2500 µM: 98%

## Cc1ccc(F)cc1S(=O)(=O)N(C)CC1CCOC1 (stereo not drawn) [Compound S213-1645]
[1]
  remaining activity at 2100 µM: 102%

## Cc1cc(C)nc(C)c1 [FLD167]
[3]
  remaining activity at 2500 µM: 95%

## Nc1ncccc1C(=O)O [FLD088]
read-out: DdlB RA
  remaining activity at 2500 µM: 98%

## Cc1ccc(Cn2ccnc2C(N)=O)cc1 [Compound Z601-5404]
read-out: DdlB RA
  remaining activity at 2600 µM: 99%

## Cc1ccc(O)c(CCc2ccc(O)cc2)n1 [Compound 1733-0143]
read-out: DdlB RA
  remaining activity at 2100 µM: 90%

## Cc1nc2ccccc2nc1O [FLD171]
[3]
  remaining activity at 2500 µM: 95%

## Cc1nc(C(=O)O)c(C)n1C1CCN(C)CC1 [FF20-0714]
[1]
  remaining activity at 2100 µM: 100%

## CC1CN(S(=O)(=O)c2ccc(F)c(F)c2)CC(C)O1 (stereo not drawn) [Compound Y202-8173]
[1]
  remaining activity at 2100 µM: 95%

## Cc1ccc(C)c(C(=O)N(C)CC2CCOC2)c1 (stereo not drawn) [Compound S213-1736]
read-out: DdlB RA
  remaining activity at 2400 µM: 99%

## N#Cc1ccsc1N [FLD136]
[3]
  remaining activity at 2500 µM: 100%

## O=C(Nc1ccccn1)NC1CCS(=O)(=O)C1 (stereo not drawn) [Compound 7098-0576]
read-out: DdlB RA
  remaining activity at 2400 µM: 87%

## Cc1ccc([N+](=O)[O-])cc1S(=O)(=O)O [Compound 0804-0047]
read-out: DdlB RA
  remaining activity at 2300 µM: 93%

## CC(=O)c1ccc[nH]1 [FLD139]
[3]
  remaining activity at 2500 µM: 95%

## O=C(O)c1cccc2c1C(=O)N(Cc1ccncc1)C2 [Compound 8017-6147]
[2]
  remaining activity at 1900 µM: 90%

## Cc1ncc(CO)c(C2CCCN(C(=O)C(C)C)C2)n1 (stereo not drawn) [SA04-1071]
[1]
  remaining activity at 2200 µM: 95%

## Cn1nc(CCC(=O)NC2CCCC2)c2c1CCOC2 [SD48-0064]
[1]
  remaining activity at 2200 µM: 102%

## O=C(O)c1ccccc1NCc1ccccc1Cl [Compound K783-0963]
[1]
  remaining activity at 1900 µM: 95%

## CCCNC(=O)N1CCC(F)(C(=O)NC2CC2)CC1 [Compound T502-0828]
[1]
  remaining activity at 1800 µM: 97%

## O=C(Nc1cccc(F)c1)[C@H]1CCCC[C@H]1C(=O)O [Compound Y203-6612]
[2]
  remaining activity at 1900 µM: 93%

## Cc1cccc(Nc2ncccc2S(N)(=O)=O)c1 [Compound M784-3114]
read-out: DdlB RA
  remaining activity at 1900 µM: 94%

## c1cnc(-c2nc(C3CCNC3)no2)cn1 (stereo not drawn) [Compound S069-3207]
read-out: DdlB RA
  remaining activity at 1700 µM: 95%

## CC(C)c1nnc(-c2cnccn2)o1 [Compound Z632-7479]
read-out: DdlB RA
  remaining activity at 2600 µM: 105%

## CNC(=O)CCN1C(=O)CSC1c1ccccc1Cl (stereo not drawn) [Compound V026-8598]
read-out: DdlB RA
  remaining activity at 1700 µM: 109%

## Cc1cc(=O)n(-c2ccccc2)n1C [FLD081]
[3]
  remaining activity at 2500 µM: 100%

## CC(Oc1ccccc1)C(=O)O (stereo not drawn) [FLD019]
[3]
  remaining activity at 2500 µM: 99%

## Cc1ccnc(N)c1 [FLD087]
[3]
  remaining activity at 2500 µM: 100%

## CN1CCC2(CC1)CNCc1ccccc1O2 [Compound S530-0066]
read-out: DdlB RA
  remaining activity at 2200 µM: 94%

## O=c1[nH]c2ccc(S(=O)(=O)N3CCCCC3)cc2o1 [Compound K893-0198]
read-out: DdlB RA
  remaining activity at 1800 µM: 100%

## CNCCN1C(=O)C(C)SC1c1ccccc1C (stereo not drawn) [Compound V007-8918]
read-out: DdlB RA
  remaining activity at 1900 µM: 72%

## CN1CCN(C)C1c1ccccc1O [FF01-2467]
Tested concentration 3.1 mM, read-out: DdlB RA
  remaining activity at 3100 µM: 93%

## Nc1n[nH]c(CC(=O)O)n1 [Compound 8010-3882]
Tested concentration 3.5 mM, read-out: DdlB RA
  remaining activity at 3500 µM: 100%

## O=C(O)c1cc(O)ccc1Cl [FLD097]
[3]
  remaining activity at 2500 µM: 94%

## CC(=O)N1CCCC(c2nn(C)c(=O)n2C2CCCC2)C1 (stereo not drawn) [Compound P940-4223]
[1]
  remaining activity at 2100 µM: 96%

Reference: article PMC9718554, “Discovery of a fragment hit compound targeting D-Ala:D-Ala ligase of bacterial peptidoglycan biosynthesis” (Journal of Enzyme Inhibition and Medicinal Chemistry, 2022)
